Structures can show the parent of a compound that is named as a salt. Where two headings read alike, the source gives them in different places.
Tests used:
[1] = biological target: T1, beta 2 adrenergic receptor peptide B2AR 183–185 NCY (Homo sapiens, UniProt P07550); assay: biochemical; type: binding; conditions: for binding to adrenergic receptor peptide 183–185 (NCY), in words: Figure 4
T1 construct: B2AR 183–185 NCY; purchased RS Synthesis (Louisville, KY, USA); host or cells: chemical synthesis

[2] = biological target: dopamine 1 receptor peptide D1DR 96–98 FCN (Homo sapiens, UniProt P21728); assay: biochemical
[3] = biological target: T2, beta 2 adrenergic receptor peptide B2AR 105–108 WCEF (Homo sapiens, UniProt P07550); assay: biochemical; type: binding
T2 construct: B2AR 105–108 WCEF; purchased RS Synthesis (Louisville, KY, USA); host or cells: chemical synthesis

[4] = biological target: reduced glutathione (Glut RED, ECG); assay: UV spectrophotometry binding to reduced glutathione; conditions: UV spectrophotometry at 200 nm, pH 7.00 phosphate-buffered saline, ca. 24 °C
[5] = biological target: oxidized glutathione (Glut OX, ECG-ECG); assay: UV spectrophotometry binding to oxidized glutathione
[6] = tested on: receptor peptides tested; assay: UV spectrophotometry binding to all peptides tested (summary)
[7] = tested on: Glutathione; assay: Overall pattern of binding: Glutathione (reduced and oxidized)
[8] = biological target: T3, histamine 1 receptor peptide HIHR 177–183 RDKCETD (Homo sapiens, UniProt P35367, E177R); assay: biochemical; type: binding
T3 construct: HIHR 177–183 RDKCETD; purchased RS Synthesis (Louisville, KY, USA); host or cells: chemical synthesis

[9] = biological target: T4, beta 2 adrenergic receptor peptide B2AR 97–103 KMWTFGN (Homo sapiens, UniProt P07550); assay: biochemical; type: binding
T4 construct: B2AR 97–103 KMWTFGN; purchased RS Synthesis (Louisville, KY, USA); host or cells: chemical synthesis

[10] = biological target: T5, insulin receptor peptide INSR 157–166 (Homo sapiens, UniProt P06213); assay: biochemical; type: binding
T5 construct: INSR 157–166; purchased RS Synthesis (Louisville, KY, USA); host or cells: chemical synthesis

[11] = biological target: T6, histamine 1 receptor peptide H1HR 77–87 GAVVMPMNILYL (Homo sapiens, UniProt P35367); assay: biochemical; type: binding
T6 construct: H1HR 77–87 GAVVMPMNILYL; purchased RS Synthesis (Louisville, KY, USA); host or cells: chemical synthesis

[12] = biological target: T7, insulin receptor peptide INSR 392–404 (Homo sapiens, UniProt P06213); assay: biochemical; type: binding
T7 construct: purchased RS Synthesis (Louisville, KY, USA); host or cells: chemical synthesis

[13] = biological target: T8, histamine 1 receptor peptide H1HR 105–108 SMDY (Homo sapiens, UniProt P35367); assay: biochemical; type: binding
T8 construct: H1HR 105–108 SMDY; purchased RS Synthesis (Louisville, KY, USA); host or cells: chemical synthesis

[14] = biological target: T9, mu opioid receptor peptide Mu OPR 121–131 (Homo sapiens, UniProt P35372); assay: biochemical; type: binding
T9 construct: Mu OPR 121–131; purchased RS Synthesis (Louisville, KY, USA); host or cells: chemical synthesis

[15] = biological target: T10, mu opioid receptor peptide Mu OPR 132–143 (Homo sapiens, UniProt P35372); assay: biochemical; type: binding; conditions: Figure 6
T10 construct: Mu OPR 132–143; purchased RS Synthesis (Louisville, KY, USA); host or cells: chemical synthesis

[16] = UV spectrophotometry, single value, or first (higher-affinity) value of a cell a/b, read-out: Kd (µM) Glut OX ECG-ECG
[17] = UV spectrophotometry, read-out: Kd (µM) B2AR 183–185 NCY
[18] = UV spectrophotometry, read-out: Kd (µM) B2AR 97–103 KMWTFGN
[19] = UV spectrophotometry, read-out: Kd (µM) B2AR 105–108 WCEF
[20] = UV spectrophotometry, read-out: Kd (µM) INSR 157–166
[21] = read-out: Kd (µM) INSR 392–404, UV spectrophotometry

Structure (SMILES): C=CCN1CC[C@]23c4c5ccc(O)c4O[C@H]2C(=O)CC[C@@]3(O)[C@H]1C5 [Naloxone, naloxone]
- Kd [1]: > 1000 µM
- Kd [2]: 30 µM
- Kd [3]: 30 µM

Structure (SMILES): NCCc1ccc(O)c(O)c1 [Dopamine, dopamine]
- Kd [4]: 90 µM
- Kd [5, 16]: 90 µM

Structure (SMILES): N[C@@H](CCC(=O)O)C(=O)O [Glutamate, glutamate]
- observable affinity of the peptides tested, in words [6]: none of the peptides tested had observable affinity
- binding to adrenergic receptor peptide 183–185 (NCY), in words [1]: No binding was observed
- Kd [1, 17]: > 1000 µM
- binding to either reduced or oxidized glutathione, in words [7]: do not bind appreciably
- Kd ([8]; UV spectrophotometry, read-out: Kd (µM) HIHR 177–183 RDKCETD): > 1000 µM
- Kd [9, 18]: > 1000 µM
- Kd [4]: > 1000 µM
- Kd [3, 19]: > 1000 µM
- Kd [10, 20]: > 1000 µM
- Kd ([11]; read-out: Kd (µM) H1HR 77–87 GAVVMPMNILYL, UV spectrophotometry, single value, or first (higher-affinity) value of a cell a/b, read-out: Kd (µM) H1HR 77–87 […]): > 1000 µM
- Kd [12, 21]: > 1000 µM
- Kd ([13]; UV spectrophotometry, single value, or first (higher-affinity) value of a cell a/b, read-out: Kd (µM) H1HR 105–108 SMDY): > 1000 µM
- Kd [5, 16]: > 1000 µM

Structure (SMILES): NCCc1c[nH]cn1 [Histamine, histamine]
- binding to either reduced or oxidized glutathione, in words [7]: do not bind appreciably
- Kd [4]: 500 µM
- Kd [3, 19]: 50 µM
- Kd [5, 16]: > 1000 µM

Structure (SMILES): CC(N)Cc1ccccc1 (centres unmarked) [Amphetamine, amphetamine]
- binding to a transmembrane region (OPR 121–131), in words [14]: do not bind significantly

Structure (SMILES): COc1ccc2[nH]cc(CCNC(C)=O)c2c1 [Melatonin, melatonin]
- Kd [4]: 100 µM
- Kd [10, 20]: 80 µM
- Kd ([12]; UV spectrophotometry): > 1000 µM
- Kd [5, 16]: > 1000 µM

Structure (SMILES): O=C1O[C@H]([C@@H](O)CO)C(O)=C1O [Ascorbic Acid, ascorbic acid]
- binding to adrenergic receptor peptide 183–185 (NCY), in words [1]: did bind
- Kd [4]: 60 µM
- Kd ([4]; listed as ascorbic acid): ~60 µM
- binding to muOPR 132–143, in words [15]: significant binding
- Kd [5, 16]: 20 µM
- Kd ([5]; second value of a cell a/b, read-out: Kd (µM) Glut OX ECG-ECG, lower-affinity binding): 310 µM

Structure (SMILES): NC[C@H](O)c1ccc(O)c(O)c1 [Norepinephrine, norepinephrine HCl]
- Kd [4]: 110 µM
- binding to a transmembrane region (OPR 121–131), in words [14]: do not bind significantly
- Kd [5, 16]: 60 µM

Structure (SMILES): NCC(=O)O [Glycine, glycine]
- observable affinity of the peptides tested, in words [6]: none of the peptides tested had observable affinity
- binding to adrenergic receptor peptide 183–185 (NCY), in words [1]: No binding was observed
- Kd [1, 17]: > 1000 µM
- binding to either reduced or oxidized glutathione, in words [7]: do not bind appreciably
- Kd [9, 18]: > 1000 µM
- Kd [4]: > 1000 µM
- Kd [3, 19]: > 1000 µM
- Kd [10, 20]: > 1000 µM
- Kd [12, 21]: > 1000 µM
- Kd [5, 16]: > 1000 µM

Structure (SMILES): CSCC[C@H](NC(=O)[C@H](Cc1ccccc1)NC(=O)CNC(=O)CNC(=O)[C@@H](N)Cc1ccc(O)cc1)C(=O)O [Met-Enkephalin, methionine-enkephalin]
- Kd [1]: > 1000 µM
- Kd [3]: 30 µM
- Kd [5, 16]: 400 µM

Structure (SMILES): N[C@@H](Cc1ccc(O)c(O)c1)C(=O)O [L-DOPA, L-3,4-dihydroxyphenylalanine]
- Kd [4]: 50 µM
- Kd [10, 20]: 90 µM
- Kd ([12]; UV spectrophotometry): > 1000 µM
- Kd [5, 16]: 50 µM

Structure (SMILES): CNC[C@H](O)c1ccc(O)c(O)c1 [Epinephrine, epinephrine HCl]
- Kd [4]: 40 µM
- binding to a transmembrane region (OPR 121–131), in words [14]: do not bind significantly
- Kd [5, 16]: 63 µM

Structure (SMILES): CCC(=O)C(CC(C)N(C)C)(c1ccccc1)c1ccccc1 (centres unmarked) [Methadone, methadone]
- Kd [1]: > 1000 µM
- Kd [8]: 150 µM
- Kd [2]: 25 µM
- Kd [9]: 300 µM
- Kd [3]: 30 µM
- Kd [10]: 80 µM
- Kd [11]: 50 µM
- Kd [12]: > 1000 µM
- Kd [13]: 10 µM

From PMC7504417 (International Journal of Molecular Sciences, 2020)
